According to patent US10883962B2, “Electrical double layer in nanopores for detection and identification of molecules and submolecular units” (University of Kentucky Research Foundation, priority 2017, dated 2021):

Experiments:
[1] = Expected valence charge of analytes and ions based on pKas; format: physicochemical; settings: for Expected valence charge: maximal negative charge, intraluminal pH of 12; for Valence charge level (Zanalyte): used in the empirical model, Example 2
Excerpt: In order to investigate any dependency of the signal on the analyte concentration, the concentrations of the molecular analytes were varied from 10^−8 to 10^−2 M in 10^−5 M NaF solution. Because NaF dissociates into Na^+ and F^−, and F^− will form HF in solution (due to HF being a weak acid), it was important to ensure that the concentration of HF was negligible compared with the concentration of the molecular analytes and supporting electrolytes. […] The specific analytes used in this study were chosen to have distinct acid dissociation constants (pKas) and to be relatively similar in size (Table 2). […] NaCl was chosen as the supporting electrolyte in this pH experiment in order to maintain a homogeneous ion population with the titration reagents, NaOH and HCl. It was desirable to avoid using HF as a titration reagent, due to the risk of damaging the nanopore device and because HF is a weak acid. In low pH conditions, the concentration of undissociated HF would increase to non-negligible levels. Since HCl and NaOH are a strong acid and base, respectively, there was no risk of producing undissociated molecules at low or high pHs. […] In order to characterize this energetic balance, we estimate the pH of the intraluminal environment by considering the variable valence charges and pKas of the analytes. Table 3 lists the expected charge on each analyte at different pHs based on the pKas of the individual analytes.

[2] = Density and estimated spherical radius of analytes and supporting ions; format: physicochemical
[3] = cited from earlier work
[4] = Saturation of NaF solution; format: physicochemical; settings: in this study
Excerpt: The SNR is consistent for electrolyte concentrations <1 M, and the sudden decrease in SNR at 1 M NaF is indicative of a saturation effect, where saturation of the solution would preclude significant changes to the electrochemical potential of the EDL. By considering the charge density and steady state double layer potential as response curves, we can explain the loss of signal quality at high concentrations of supporting electrolyte (FIG. 3(c)). The increase in steady-state potential and charge density (calculated from the model) slows at high concentrations, and a similar effect occurs experimentally to the steady state double layer potential. The decrease in slope of the response curves at high concentration will result in smaller signals from the analytes, resulting in the decrease in SNR observed at high concentrations of supporting electrolyte. Since the measured steady state potential and solution saturation follow similar curves, this may be a useful method for quantitatively characterizing solutions, as well as a method of characterizing individual analyte molecules.

[5] = 21° C.; cited from earlier work

| SMILES | Expected valence charge [1] | Estimated spherical radius [2] [nm] | Valence charge at pH ([1]; pH 1) | Valence charge at pH ([1]; pH 2, 3) | Valence charge at pH ([1]; pH 4) | Valence charge at pH ([1]; pH 5, 6) | Valence charge at pH ([1]; pH 7, 8, 9, 10) | Valence charge at pH ([1]; pH 11) | Valence charge at pH ([1]; pH 12) | Valence charge level (Zanalyte) [1] | pKa 1 [3] | Saturated NaF solution reached [4] | Saturation of NaF [5] [M] | pKa 2 [3] |
| --- | --- | --- | --- | --- | --- | --- | --- | --- | --- | --- | --- | --- | --- | --- |
| [K+] [K^+] | 1 | 0.26 | – | – | – | – | – | – | – | – | – | – | – | – |
| Oc1ccc(O)cc1 [Hydroquinone] | −1 | 0.32 | 0 | 0 | 0 | 0 | 0 | −1 | −1 | −1 | 10.35 | – | – | – |
| [F-].[Na+] [NaF] | – | – | – | – | – | – | – | – | – | – | – | approximately 1 M | 0.96 | – |
| O=C1O[C@H]([C@@H](O)CO)C(O)=C1O [L-Ascorbic acid] | −2 | 0.35 | 0 | 0 | 0 | −1 | −1 | −1 | −2 | −2 | – | – | – | 11.7 |
| O=C(O)C(=O)O [Oxalic acid] | −1 | 0.27 | 0 | −1 | −1 | −1 | −1 | −1 | −1 | −1 | – | – | – | – |
| Cl [Cl−] | – | 0.21 | – | – | – | – | – | – | – | – | – | – | – | – |
| [Na+] [Na^+] | 1 | 0.21 | – | – | – | – | – | – | – | – | – | – | – | – |
| F [F−] | −1 | 0.17 | – | – | – | – | – | – | – | – | – | – | – | – |
| O=C(O)CC(O)(CC(=O)O)C(=O)O [Citric Acid] | −3 | 0.37 | 0 | 0 | −1 | −2 | −3 | −3 | −3 | −3 | – | – | – | – |
